Laboratory results from patent US11952349B2, “Anti-cancer nuclear hormone receptor-targeting compounds” (Nuvation Bio Inc., priority 2019, dated 2024).

system: 22Rv1 cells; experiment: Cell viability assay (CellTiterGlo, 6 days) 22Rv1; assay type: cell-based; conditions: Homo sapiens, 22Rv1, 144 h; Table 7; cell viability, 6 days; read-out: 22RV1
Experimental: Cell viability assay: LNCap, 22Rv1, and T47D cells were seeded at a density of 1500-2000 cells/well in 96 well plates, and a ‘T0’ (timepoint 0) was included along with the assay plate. The plates were then incubated at 37° C., 5% CO2 in a cell culture incubator overnight. On the next day, the ‘T0’ plate was assayed using CellTiterGlo (Promega, Inc) according to the manufacturer's instructions. The appropriate compounds were diluted in DMSO and added to the assay plate (final DMSO concentration of 0.2%) on the next day. The assay plates were incubated for 6 days at 37° C., 5% CO2. After the incubation period, the plates were assayed using CellTiterGlo (Promega, Inc) according to the manufacturer's instructions and luminescence was read on the EnVision plate reader. Inhibition the tested compounds was determined by the following formula: Inhibition rate (%)=(1−(RLU compound−RLU day0)/(RLU control−RLU day0))*100%. GraphPadPrism was used to analyze the data and determine absolute IC50 values.

SMILES	IC50 [nM]
C[C@@]12CCC(=O)C[C@H]1CC[C@H]1[C@H]2CC[C@]2(C)[C@@H]1CC[C@H]2OCCCCCCNC(=O)c1cc(Cc2n[nH]c(=O)c3ccccc23)ccc1F (stereo in doubt) [Compound 1426, N-(6-((5R,8S,9R,10R,13R,14R,17R)-10,13-dimethyl-3-oxohexadecahydro-1H-cyclopenta[a]phenanthren-17-yloxy)hexyl)-2-fluoro-5-((4-oxo-3,4-dihydrophthalazin-1-yl)methyl)benzamide]	1000 to 10000
C[C@]12C[C@H](CCCCCC(=O)N3CCN(C(=O)c4cc(Cc5n[nH]c(=O)c6ccccc56)ccc4F)CC3)C3=C4CCC(=O)C=C4CC[C@H]3[C@@H]1CCC2O (stereo partly drawn) [Compound 138, 4-(4-fluoro-3-(4-(6-((8S,11S,13S,14S)-17-hydroxy-13-methyl-3-oxo-2,3,6,7,8,11,12,13,14,15,16,17-dodecahydro-1H-cyclopenta[a]phenanthren-11-yl)hexanoyl)piperazine-1-carbonyl)benzyl)phthalazin-1(2H)-one]	100 to 1000
Cn1ncnc1C1c2n[nH]c(=O)c3cc(F)cc(c23)N[C@@H]1c1ccc(NC(=O)CCCCCO[C@@H]2CC[C@H]3[C@@H]4CC[C@H]5CCCC[C@]5(C)[C@H]4CC[C@]23C)cc1 (stereo partly drawn) [Compound 1128, 6-((5R,8R,9S,10S,13S,14S,17R)-10,13-dimethylhexadecahydro-1H-cyclopenta[a]phenanthren-17-yloxy)-N-(4-((8S)-5-fluoro-9-(1-methyl-1H-1,2,4-triazol-5-yl)-3-oxo-3,7,8,9-tetrahydro-2H-pyrido[4,3,2-de]phthalazin-8-yl)phenyl)hexanamide]	1000 to 10000
C[C@]12Cc3cn[nH]c3C[C@@H]1CC[C@@H]1[C@@H]2CC[C@]2(C)[C@@H](OCCCCCC(=O)N3CCN(C(=O)c4cc(Cc5n[nH]c(=O)c6ccccc56)ccc4F)CC3)CC[C@@H]12 [Compound 1394, 4-(3-(4-(6-(((1S,3aS,3bR,5aS,10aS,10bS,12aS)-10a,12a-dimethyl-1,2,3,3a,3b,4,5,5a,6,7,10,10a,10b,11,12,12a-hexadecahydrocyclopenta[5,6]naphtho[1,2-f]indazol-1-yl)oxy)hexanoyl)piperazine-1-carbonyl)-4-fluorobenzyl)phthalazin-1(2H)-one]	100 to 1000
